Assay results as given in US4496735A, “Certain pyridyloxy-or-thio-phenyl propenoic acid derivatives” (Maruko Seiyaku Co., Ltd., priority 1982, dated 1985).
Where a name gives a salt, the structure may show the parent alone. Read-outs that look alike come from different tables or passages of the source.

Legend:
ddY male mice = assay: Acute Toxicity; assay type: in vivo; conditions: i.p., mortality one week after administration, Behrens-Karber method, 10080 min
Experimental: (§1) The test compound was administered intraperitoneally to ddY male mice weighing 22 to 24 g and LD50 was determined by the Behrens-Karber method [Arch. exp. Path. Pharmak., 177, 379 (1935)] from the mortality one week after administration.

[1] = test system: Arachidonic Acid-Induced Sudden Death; assay: Effect on Arachidonic Acid-Induced Sudden Death in Rabbit; assay type: in vivo, male rabbits; conditions: for % Protection / Ratio of Mortality/Total Number: 20 mg/kg i.p. 2 hours before 1.4 mg/kg sodium arachidonate (ear vein); for % Protection: 30 minutes; for Ratio of Mortality/Total Number: mortality at 30 minutes; for protection against the arachidonic acid-induced sudden death in rabbits (in words): conclusion in words
Description: The compounds of the present invention having the formula (I) and the pharmaceutically acceptable salts thereof thus obtained have a strong inhibitory activity on thromboxane A2 synthetase. A typical in vivo test method for evaluating compounds which may be useful as a so-called anti-thrombotic agent has been reported in literature and this method comprises determining the prevention of sudden death of rabbits caused by arachidonic acid, as reported in, for example, Agents and Actions, 7, 481 (1977); Pharmacology, 14, 522 (1976); Science, 183, 1085 (1974), etc.
More specifically, sodium arachidonate is administered intravenously to rabbits at a dose of about 1.4 mg/kg to cause a sudden death within a few minutes due to platelet aggregation and lung embolus.
According to the method of Silver et al [Science, 183, 1085 (1974)], 20 mg/kg of the test compound was administered intraperitoneally into male rabbits (8 or 10 rabbits per group), each weighing 2.2 to 2.8 kg, and 2 hours after the administration 1.4 mg/kg of sodium arachidonate was administered to the rabbit from an ear vein. The mortality of the rabbits was then calculated 30 minutes after the administration of sodium arachidonate.

[2] = test system: platelet aggregation (collagen), rabbit platelet-rich plasma; assay: Inhibition of Platelet Aggregation induced by collagen; assay type: cell-based; conditions: for IC50: Oryctolagus cuniculus, Platelet, rabbit PRP, collagen 10 ug/ml, 37° C.; for inhibitory activity on platelet aggregation induced by collagen (in words): conclusion in words
Experimental: (§2) Rabbit platelet-rich plasma was pre-incubated at 37° C. for 1 minute and, after adding the test compound, arachidonic acid or collagen was added thereto at a concentration of 100 ug/ml or 10 ug/ml, respectively. The aggregation of platelets was recorded using an aggregometer and shown in Table 2 in terms of IC50 value.

[3] = test system: platelet aggregation (arachidonic acid), rabbit platelet-rich plasma; assay: Inhibition of Platelet Aggregation induced by arachidonic acid; assay type: cell-based; conditions: for IC50: Oryctolagus cuniculus, Platelet, rabbit PRP, arachidonic acid 100 ug/ml, 37° C.; for inhibitory activity on platelet aggregation induced by arachidonic acid (in words): conclusion in words
Experimental: as §2

[4] = test system: thromboxane A2 synthesis (thromboxane A2 synthetase); assay: Inhibition of Thromboxane A2 Synthesis (collagen-stimulated rabbit platelet-rich plasma, thromboxane B2 by radioimmunoassay); assay type: cell-based; conditions: Oryctolagus cuniculus, 5 min, read-out: IC50 on Thromboxane A2 Synthesis
Experimental: Rabbit platelet-rich plasma (PRP, 6×10^8 platelets/ml) and the test compound was pre-incubated at 37° C. for 5 minutes and, after adding collagen to the mixture at a concentration of 13 ug/ml, the resulting mixture was incubated at 37° C. for 5 minutes. Then, the reaction was terminated by rendering the mixture […] with hydrochloric acid and the amount of thromboxane B2 produced was quantitatively determined by the radioimmunoassay.

Acute Toxicity = assay type: in vivo; conditions: mouse, in vivo, ip; ddY male mice; i.p.; mortality one week after administration; Behrens-Karber method
Experimental: as §1

[5] = rabbit PRP, 6×10^8 platelets/ml, collagen 13 ug/ml, 37° C., 5 minutes

| SMILES | LD50 (ddY male mice) [mg/kg] | % Protection [1] [%] | Ratio of Mortality/Total Number [1] | IC50 [2] [µM] | inhibitory activity on platelet aggregation induced by collagen (in words) [2] | IC50 [3] [µM] | inhibitory activity on platelet aggregation induced by arachidonic acid (in words) [3] | IC50 [4] [µM] | LD50 at 168 h (Acute Toxicity) [mg/kg] | IC50 [4, 5] [µM] | protection against the arachidonic acid-induced sudden death in rabbits (in words) [1] |
| --- | --- | --- | --- | --- | --- | --- | --- | --- | --- | --- | --- |
| CCCCCCCCCn1ccnc1 [Compound A, Nonylimidazole, reference compound] | 59 | 50 | 5/10 | – | – | – | – | – | – | – | – |
| Cl.O=C(O)c1ccc(OCCn2ccnc2)cc1 [Compound B, 4-(2-Imidazol-1-ylethoxy)benzoic acid hydrochloride, reference compound] | – | – | – | 400 | very weak inhibitory activity | > 1000 | very weak inhibitory activity | 5.7 | – | – | – |
| CC(=Cc1ccc(Cc2cccnc2)cc1)C(=O)O.Cl [Compound C, 2-Methyl-3-[4-(3-pyridylmethyl)phenyl]propenoic acid hydrochloride, reference compound] | – | – | – | 420 | very weak inhibitory activity | > 1000 | very weak inhibitory activity | – | 220 | 0.22 | – |
| CC(=Cc1ccc(Oc2cccnc2)cc1)C(=O)O.Cl [Compound D, 2-Methyl-3-[4-(3-pyridyloxy)phenyl]propenoic acid hydrochloride] | – | 100 | 0/10 | 36 | – | – | – | – | 350 | 1 | strong protection |
| CC(=Cc1ccc(Oc2cccnc2)cc1)C(=O)NC1CCCCC1.Cl [Compound E, N-Cyclohexyl-2-methyl-3-[4-(3-pyridyloxy)phenyl]propenamide hydrochloride] | – | 75 | 2/8 | 47 | – | 31 | – | – | 210 | 5.9 | strong protection |
| CC(=Cc1ccc(Sc2ccncc2)cc1)C(=O)O [Compound F, 2-Methyl-3-[4-(4-pyridylthio)phenyl]propenoic acid hydrochloride] | – | – | – | 22 | – | – | – | – | – | 0.31 | – |
| CC(=Cc1ccc(Oc2cccnc2)cc1)C(N)=O.Cl [Compound G, 2-Methyl-3-[4-(3-pyridyloxy)phenyl]propenamide hydrochloride] | – | – | – | 56 | – | 335 | – | – | 310 | 0.56 | – |
